Measured values reported in article PMC9143591, “The Chemical Constituents of Diaphragma Juglandis Fructus and Their Inhibitory Effect on α-Glucosidase Activity” (Molecules, 2022).

Each compound was assayed against α-glucosidase (Saccharomyces cerevisiae, UniProt P53341) (assay: α-Glucosidase inhibitory assay). Details: in vitro.
Assay type: biochemical
Experimental: Alpha-glucosidase is an enzyme that hydrolyzes the carbohydrates to monosaccharides in the final step of carbohydrate digestion. […] In order to search for bioactive substances to treat type 2 diabetes using Diaphragma juglandis Fructus, all isolated constituents (1–37) were assessed for antidiabetic activity using an in vitro α-glycosidase inhibition assay.
The α-glucosidase was obtained from Sigma-Aldrich (Shanghai) Trading Co., Ltd (Shanghai, China). p-nitrophenyl-α-D-glucopyranoside was obtained from Macklin Co., Ltd. (Lot# C12592180, Shanghai, China).
The α-glucosidase inhibition assay was performed according to a previous report with a slight difference: the concentration of α-glucosidase was diluted to 0.15 unit/mL. The volume of α-glucosidase added to the 96-well plate was 10 μL.

α-glucosidase, sequence (P53341 whole entry): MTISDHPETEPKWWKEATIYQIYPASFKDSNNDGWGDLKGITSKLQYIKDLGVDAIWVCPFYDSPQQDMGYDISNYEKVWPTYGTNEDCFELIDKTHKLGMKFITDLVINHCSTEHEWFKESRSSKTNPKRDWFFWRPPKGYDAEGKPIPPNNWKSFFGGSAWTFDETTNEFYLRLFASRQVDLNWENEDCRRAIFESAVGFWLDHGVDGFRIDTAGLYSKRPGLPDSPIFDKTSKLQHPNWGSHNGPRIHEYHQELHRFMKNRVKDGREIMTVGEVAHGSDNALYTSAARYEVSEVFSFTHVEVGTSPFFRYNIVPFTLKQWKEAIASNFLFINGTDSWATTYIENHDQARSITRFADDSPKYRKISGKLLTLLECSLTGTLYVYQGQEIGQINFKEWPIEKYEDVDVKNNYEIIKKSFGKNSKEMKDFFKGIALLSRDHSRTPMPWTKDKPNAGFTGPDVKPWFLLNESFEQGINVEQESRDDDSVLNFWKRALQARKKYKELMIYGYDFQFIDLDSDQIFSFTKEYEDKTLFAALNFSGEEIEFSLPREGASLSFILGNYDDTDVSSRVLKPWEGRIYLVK

SMILES | α-glucosidase inhibition activity (in words)
Oc1cc(O)c2c(c1)O[C@@H](c1ccc(O)c(O)c1)[C@H](O)C2 [Compound 16, (+)-catechin] | quite potent
O=C1c2c(O)cc(O)cc2OC(c2ccc(O)c(O)c2)C1O (stereo not shown) [Compound 13, taxifolin] | quite potent
O=c1cc(-c2ccc(O)c(O)c2)oc2cc(O)cc(O)c12 [Compound 28, luteolin] | quite potent
O=c1c(O)c(-c2ccc(O)c(O)c2)oc2cc(O)cc(O)c12 [Compound 21, quercetin] | quite potent
